{"source": "ChEMBL document CHEMBL3046275", "about": "“EBHU18, a novel derivative of fatty acid bile acid conjugates, prevents cholesterol gallstone formation in experimental mice” (Med Chem Res, 2012)", "key": {"Mus musculus [1]": {"test_system": "Mus musculus", "experiment": "Reduction of lithogenic diet-induced fatty liver formation in Mus musculus C57BL/6 (mouse) at 10 mg/kg/day, po followed by lithogenic diet feeding for 8 weeks by hematoxylin-eosin staining relative to untreated control", "type": "functional, organism-based"}, "Mus musculus [2]": {"test_system": "Mus musculus", "experiment": "Hepatoprotective activity in lithogenic diet-fed Mus musculus C57BL/6 (mouse) assessed as decrease in serum triglyceride level at 10 mg/kg/day, po followed by lithogenic diet feeding for 8 weeks (reference value: 1.01+/- 0.15 mmol/l)", "type": "functional"}, "Mus musculus [3]": {"test_system": "Mus musculus", "experiment": "Hepatoprotective activity in lithogenic diet-fed Mus musculus C57BL/6 (mouse) assessed as decrease in serum ALT level at 10 mg/kg/day, po after 8 weeks relative to untreated control", "type": "functional, organism-based"}, "Mus musculus [4]": {"test_system": "Mus musculus", "experiment": "Reduction of lithogenic diet-induced gallstone formation in Mus musculus C57BL/6 (mouse) at 10 mg/kg/day, po followed by lithogenic diet feeding for 8 weeks by infrared photoacoustic spectroscopic analysis (reference value: 1.53 +/- 0.63 g)", "type": "functional"}, "Mus musculus [5]": {"test_system": "Mus musculus", "experiment": "Hepatoprotective activity in lithogenic diet-fed Mus musculus C57BL/6 (mouse) assessed as decrease in serum total cholesterol level at 10 mg/kg/day, po followed by lithogenic diet feeding for 8 weeks (reference value: 2.24 +/- 0.27 mmol/l)", "type": "functional"}, "Mus musculus [6]": {"test_system": "Mus musculus", "experiment": "Toxicity in lithogenic diet-fed Mus musculus C57BL/6 (mouse) assessed as change in body weight at 10 mg/kg/day, po after 8 weeks", "type": "organism-based", "parameters": "route oral", "conditions": "in vivo, 1344 h"}, "Mus musculus [7]": {"test_system": "Mus musculus", "experiment": "Hepatoprotective activity in lithogenic diet-fed Mus musculus C57BL/6 (mouse) assessed as decrease in serum total cholesterol level at 10 mg/kg/day, po after 8 weeks relative to untreated control", "type": "functional, organism-based"}, "Mus musculus [8]": {"test_system": "Mus musculus", "experiment": "Hepatoprotective activity in lithogenic diet-fed Mus musculus C57BL/6 (mouse) assessed as decrease in serum ALT level at 10 mg/kg/day, po followed by lithogenic diet feeding for 8 weeks (reference value: 42.6 +/- 7.63 IU/L)", "type": "functional"}, "Mus musculus [9]": {"test_system": "Mus musculus", "experiment": "Toxicity in lithogenic diet-fed Mus musculus C57BL/6 (mouse) assessed as change in body weight at 10 mg/kg/day, po followed by lithogenic diet feeding for 8 weeks (reference value: 30.82 +/- 2.88 g)", "type": "organism-based", "parameters": "route oral", "conditions": "in vivo, 1344 h"}, "Mus musculus [10]": {"test_system": "Mus musculus", "experiment": "Protection against lithogenic diet-induced gallstone formation in Mus musculus C57BL/6 (mouse) at 10 mg/kg/day, po after 8 weeks by infrared photoacoustic spectroscopic analysis relative to untreated control", "type": "functional, organism-based"}, "Mus musculus [11]": {"test_system": "Mus musculus", "experiment": "Hepatoprotective activity in lithogenic diet-fed Mus musculus C57BL/6 (mouse) assessed as decrease in serum triglyceride level at 10 mg/kg/day, po after 8 weeks relative to untreated control", "type": "functional, organism-based"}, "Mus musculus [12]": {"test_system": "Mus musculus", "experiment": "Hepatoprotective activity in lithogenic diet-fed Mus musculus C57BL/6 (mouse) assessed as decrease in serum ALT level at 3 mg/kg/day, po followed by lithogenic diet feeding for 8 weeks (reference value: 42.6 +/- 7.63 IU/L)", "type": "functional"}, "Mus musculus [13]": {"test_system": "Mus musculus", "experiment": "Toxicity in lithogenic diet-fed Mus musculus C57BL/6 (mouse) assessed as change in body weight at 0.5 mg/kg/day, po followed by lithogenic diet feeding for 8 weeks (reference value: 30.82 +/- 2.88 g)", "type": "organism-based", "parameters": "route oral", "conditions": "in vivo, 1344 h"}, "Mus musculus [14]": {"test_system": "Mus musculus", "experiment": "Reduction of lithogenic diet-induced fatty liver formation in Mus musculus C57BL/6 (mouse) at 0.5 to 3 mg/kg/day, po after 8 weeks by hematoxylin-eosin staining relative to untreated control", "type": "functional, organism-based"}, "Mus musculus [15]": {"test_system": "Mus musculus", "experiment": "Reduction of lithogenic diet-induced gallstone formation in Mus musculus C57BL/6 (mouse) at 3 mg/kg/day, po followed by lithogenic diet feeding for 8 weeks by infrared photoacoustic spectroscopic analysis (reference value: 1.53 +/- 0.63 g)", "type": "functional"}, "Mus musculus [16]": {"test_system": "Mus musculus", "experiment": "Protection against lithogenic diet-induced gallstone formation in Mus musculus C57BL/6 (mouse) at 0.5 mg/kg/day, po after 8 weeks by infrared photoacoustic spectroscopic analysis relative to untreated control", "type": "functional, organism-based"}, "Mus musculus [17]": {"test_system": "Mus musculus", "experiment": "Hepatoprotective activity in lithogenic diet-fed Mus musculus C57BL/6 (mouse) assessed as decrease in serum total cholesterol level at 0.5 to 3 mg/kg/day, po after 8 weeks relative to untreated control", "type": "functional, organism-based"}, "Mus musculus [18]": {"test_system": "Mus musculus", "experiment": "Hepatoprotective activity in lithogenic diet-fed Mus musculus C57BL/6 (mouse) assessed as decrease in serum total cholesterol level at 3 mg/kg/day, po followed by lithogenic diet feeding for 8 weeks (reference value: 2.24 +/- 0.27 mmol/l)", "type": "functional"}, "Mus musculus [19]": {"test_system": "Mus musculus", "experiment": "Hepatoprotective activity in lithogenic diet-fed Mus musculus C57BL/6 (mouse) assessed as decrease in serum triglyceride level at 3 mg/kg/day, po followed by lithogenic diet feeding for 8 weeks (reference value: 1.01+/- 0.15 mmol/l)", "type": "functional"}, "Mus musculus [20]": {"test_system": "Mus musculus", "experiment": "Hepatoprotective activity in lithogenic diet-fed Mus musculus C57BL/6 (mouse) assessed as decrease in serum triglyceride level at 0.5 to 3 mg/kg/day, po after 8 weeks relative to untreated control", "type": "functional, organism-based"}, "Mus musculus [21]": {"test_system": "Mus musculus", "experiment": "Hepatoprotective activity in lithogenic diet-fed Mus musculus C57BL/6 (mouse) assessed as decrease in serum ALT level at 0.5 to 3 mg/kg/day, po after 8 weeks relative to untreated control", "type": "functional, organism-based"}, "Mus musculus [22]": {"test_system": "Mus musculus", "experiment": "Reduction of lithogenic diet-induced gallstone formation in Mus musculus C57BL/6 (mouse) at 0.5 mg/kg/day, po followed by lithogenic diet feeding for 8 weeks by infrared photoacoustic spectroscopic analysis (reference value: 1.53 +/- 0.63 g)", "type": "functional"}, "Mus musculus [23]": {"test_system": "Mus musculus", "experiment": "Hepatoprotective activity in lithogenic diet-fed Mus musculus C57BL/6 (mouse) assessed as decrease in serum triglyceride level at 0.5 mg/kg/day, po followed by lithogenic diet feeding for 8 weeks (reference value: 1.01+/- 0.15 mmol/l)", "type": "functional"}, "Mus musculus [24]": {"test_system": "Mus musculus", "experiment": "Reduction of lithogenic diet-induced fatty liver formation in Mus musculus C57BL/6 (mouse) at 0.5 to 3 mg/kg/day, po followed by lithogenic diet feeding for 8 weeks by hematoxylin-eosin staining relative to untreated control", "type": "functional, organism-based"}, "Mus musculus [25]": {"test_system": "Mus musculus", "experiment": "Protection against lithogenic diet-induced gallstone formation in Mus musculus C57BL/6 (mouse) at 3 mg/kg/day, po after 8 weeks by infrared photoacoustic spectroscopic analysis relative to untreated control", "type": "functional, organism-based"}, "Mus musculus [26]": {"test_system": "Mus musculus", "experiment": "Toxicity in lithogenic diet-fed Mus musculus C57BL/6 (mouse) assessed as change in body weight at 3 mg/kg/day, po followed by lithogenic diet feeding for 8 weeks (reference value: 30.82 +/- 2.88 g)", "type": "organism-based", "parameters": "route oral", "conditions": "in vivo, 1344 h"}, "Mus musculus [27]": {"test_system": "Mus musculus", "experiment": "Toxicity in lithogenic diet-fed Mus musculus C57BL/6 (mouse) assessed as change in body weight at 0.5 to 3 mg/kg/day, po after 8 weeks", "type": "organism-based", "parameters": "route oral", "conditions": "in vivo, 1344 h"}, "Mus musculus [28]": {"test_system": "Mus musculus", "experiment": "Hepatoprotective activity in lithogenic diet-fed Mus musculus C57BL/6 (mouse) assessed as decrease in serum total cholesterol level at 0.5 mg/kg/day, po followed by lithogenic diet feeding for 8 weeks (reference value: 2.24 +/- 0.27 mmol/l)", "type": "functional"}, "Mus musculus [29]": {"test_system": "Mus musculus", "experiment": "Hepatoprotective activity in lithogenic diet-fed Mus musculus C57BL/6 (mouse) assessed as decrease in serum ALT level at 0.5 mg/kg/day, po followed by lithogenic diet feeding for 8 weeks (reference value: 42.6 +/- 7.63 IU/L)", "type": "functional"}}, "note": "Calls of active or inactive are those of the source. The calls are words filed in the database; no cut-off is given here.", "data": [{"smiles": "C[C@H](CCC(=O)O)[C@H]1CC[C@H]2[C@@H]3[C@@H](O)C[C@@H]4C[C@H](O)CC[C@]4(C)[C@H]3CC[C@]12C", "note": "[URSODIOL]", "values": [{"measurement": "Activity", "setting": "Mus musculus [1]", "value": "inactive"}, {"measurement": "Activity", "setting": "Mus musculus [2]", "value": 0.75, "unit": "mmol/L"}, {"measurement": "Activity", "setting": "Mus musculus [3]", "value": "Active"}, {"measurement": "Activity", "setting": "Mus musculus [4]", "value": 1.41, "unit": "g"}, {"measurement": "Activity", "setting": "Mus musculus [5]", "value": 2.16, "unit": "mmol/L"}, {"measurement": "Activity", "setting": "Mus musculus [6]", "value": "Non-toxic"}, {"measurement": "Activity", "setting": "Mus musculus [7]", "value": "Active"}, {"measurement": "Activity", "setting": "Mus musculus [8]", "value": 38, "unit": "IU/L"}, {"measurement": "Activity", "setting": "Mus musculus [9]", "value": 31.76, "unit": "g"}, {"measurement": "Activity", "setting": "Mus musculus [10]", "value": "inactive"}, {"measurement": "Activity", "setting": "Mus musculus [11]", "value": "Active"}]}, {"smiles": "CCCCCCCCCCCCCCCCCCCC(=O)NCCCCC(NC(=O)CC[C@@H](C)[C@H]1CC[C@H]2[C@@H]3C(O)C[C@@H]4C[C@H](O)CC[C@]4(C)[C@H]3C[C@H](O)[C@]12C)C(=O)O", "note": "(some centres undefined)", "values": [{"measurement": "Activity", "setting": "Mus musculus [12]", "value": 36.5, "unit": "IU/L"}, {"measurement": "Activity", "setting": "Mus musculus [13]", "value": 31.89, "unit": "g"}, {"measurement": "Activity", "setting": "Mus musculus [14]", "value": "Active"}, {"measurement": "Activity", "setting": "Mus musculus [15]", "value": 0.96, "unit": "g"}, {"measurement": "Activity", "setting": "Mus musculus [16]", "value": "inactive"}, {"measurement": "Activity", "setting": "Mus musculus [17]", "value": "Active"}, {"measurement": "Activity", "setting": "Mus musculus [18]", "value": 2.04, "unit": "mmol/L"}, {"measurement": "Activity", "setting": "Mus musculus [19]", "value": 0.74, "unit": "mmol/L"}, {"measurement": "Activity", "setting": "Mus musculus [20]", "value": "Active"}, {"measurement": "Activity", "setting": "Mus musculus [21]", "value": "Active"}, {"measurement": "Activity", "setting": "Mus musculus [22]", "value": 1.02, "unit": "g"}, {"measurement": "Activity", "setting": "Mus musculus [23]", "value": 0.76, "unit": "mmol/L"}, {"measurement": "Activity", "setting": "Mus musculus [24]", "value": "Active"}, {"measurement": "Activity", "setting": "Mus musculus [25]", "value": "Active"}, {"measurement": "Activity", "setting": "Mus musculus [26]", "value": 31.74, "unit": "g"}, {"measurement": "Activity", "setting": "Mus musculus [27]", "value": "Non-toxic"}, {"measurement": "Activity", "setting": "Mus musculus [28]", "value": 2.09, "unit": "mmol/L"}, {"measurement": "Activity", "setting": "Mus musculus [29]", "value": 34.8, "unit": "IU/L"}]}]}
